Test results published in patent US9777000B2, “Pyrazole derivative” (MOCHIDA PHARMACEUTICAL CO., LTD., priority 2013, dated 2017).

Each molecule was assayed against human PDE10 (Homo sapiens (Human), UniProt Q9Y233) (assay: Evaluation of enzyme inhibitory activity: human PDE10 inhibitory effect (IMAP TR-FRET)). Conditions: cAMP substrate.
Type: biochemical
Description: (Evaluation of Enzyme Inhibitory Activity: Human PDE10 Inhibitory Effect)
IMAP TR-FRET Phosphodiersterase Evaluation Assay Kit (Molecular Device) was used for the measurement. Ten μL of a diluted test compound having each concentration and 5 μL of the enzyme PDE10 (BPA Bioscience) that had been diluted to 2 ng/mL with 1×IMAP Reaction Buffer (prepared with 5×included with the kit, 10 mM Tris-HCl, pH=7.2, 10 mM MgCl2, 0.05% NaN3, and 0.1% BSA) containing 0.1% BSA were added to a 384-well plate (Corning). The obtained mixture was then pre-incubated at room temperature for 5 minutes. Thereafter, 5 μL of cAMP substrate solution which was included with the kit and diluted to 400 nM with 1×IMAP Reaction Buffer containing 0.1% BSA, was added to the reaction solution, and the obtained mixture was reacted at room temperature for 60 minutes. Thereafter, 60 μL of an IMAP TR-FRET Binding solution included with the kit was further added to the reaction solution, and the obtained mixture was then left for 3 hours or more. Subsequently, using ARVO SX (PerkinElmer), the fluorescent intensity of Terbium (Emission=490 nm) and TR-FRET (Emission=520 nm) in the reaction solution were measured at an excitation wavelength of 340 nm, so as to calculate the amount of the generated 5′-AMP. The count of a well to which a solvent had been added instead of the test compound was set at 0%, and the count of a well to which the enzyme PDE10 had not been added was set at 100%. Thus, the inhibitory activity of each test compound was calculated.
The PDE10 inhibitory activity of the test compound was indicated with an IC50 value. […] The test compounds are shown in Table 3 (Table 3-1 and Table 3-2).

Sequence of human PDE10 (Q9Y233 whole entry): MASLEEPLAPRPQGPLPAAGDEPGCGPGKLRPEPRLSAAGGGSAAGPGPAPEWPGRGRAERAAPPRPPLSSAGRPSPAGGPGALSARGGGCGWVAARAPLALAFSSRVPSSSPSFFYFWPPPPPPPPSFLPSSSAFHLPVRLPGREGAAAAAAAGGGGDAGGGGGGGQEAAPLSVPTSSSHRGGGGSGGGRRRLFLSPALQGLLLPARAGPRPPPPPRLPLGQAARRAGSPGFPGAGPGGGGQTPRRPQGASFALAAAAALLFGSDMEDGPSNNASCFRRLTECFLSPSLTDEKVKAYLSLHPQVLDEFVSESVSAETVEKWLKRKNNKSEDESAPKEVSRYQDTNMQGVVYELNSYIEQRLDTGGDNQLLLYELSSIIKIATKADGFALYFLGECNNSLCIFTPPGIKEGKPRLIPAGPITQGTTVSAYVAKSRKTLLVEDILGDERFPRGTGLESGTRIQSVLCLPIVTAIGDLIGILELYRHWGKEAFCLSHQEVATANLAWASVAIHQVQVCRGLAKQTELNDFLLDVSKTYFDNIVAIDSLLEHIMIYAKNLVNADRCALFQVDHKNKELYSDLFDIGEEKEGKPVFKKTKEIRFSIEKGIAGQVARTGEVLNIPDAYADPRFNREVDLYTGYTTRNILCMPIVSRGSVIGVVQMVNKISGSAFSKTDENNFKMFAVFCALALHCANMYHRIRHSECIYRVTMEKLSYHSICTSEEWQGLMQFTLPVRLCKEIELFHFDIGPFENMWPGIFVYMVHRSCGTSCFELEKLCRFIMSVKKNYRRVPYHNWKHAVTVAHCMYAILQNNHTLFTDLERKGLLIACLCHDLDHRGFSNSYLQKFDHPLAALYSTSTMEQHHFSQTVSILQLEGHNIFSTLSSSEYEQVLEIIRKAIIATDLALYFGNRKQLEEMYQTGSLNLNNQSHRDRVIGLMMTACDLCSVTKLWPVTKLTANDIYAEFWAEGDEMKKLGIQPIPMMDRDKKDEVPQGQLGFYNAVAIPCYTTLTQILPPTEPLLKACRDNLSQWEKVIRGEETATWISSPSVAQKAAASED

| Molecule | IC50 [nM] |
| --- | --- |
| Cc1ccc(-c2cnn(C)c2C(=O)Nc2ccn3cc(-c4ccccc4)nc3c2)nc1 [Example 1.1, 1-methyl-4-(5-methylpyridin-2-yl)-N-(2-phenylimidazo[1,2-a]pyridin-7-yl)-1H-pyrazole-5-carboxamide] | < 5 |
| Cn1ncc(-c2cccc(C(F)(F)F)n2)c1C(=O)Nc1ccn2cc(-c3ccccc3)nc2c1 [Example 1.6, 1-methyl-N-(2-phenylimidazo[1,2-a]pyridin-7-yl)-4-(6-(trifluoromethyl)pyridin-2-yl)-1H-pyrazole-5-carboxamide] | < 5 |
| CC(C)c1nsc(-c2cnn(C)c2C(=O)NC2CCn3cc(-c4ccccc4)nc3C2)n1 (centres unmarked) [Example 2.14, 4-(3-isopropyl-1,2,4-thiadiazol-5-yl)-1-methyl-N-(2-phenyl-5,6,7,8-tetrahydroimidazo[1,2-a]pyridin-7-yl)-1H-pyrazole-5-carboxamide] | < 5 |
| Cc1csc(-c2cnn(C)c2C(=O)Nc2ccn3cc(-c4ccccc4)nc3c2)n1 [Example 1.2, 1-methyl-4-(4-methylthiazol-2-yl)-N-(2-phenylimidazo[1,2-a]pyridin-7-yl)-1H-pyrazole-5-carboxamide] | < 5 |
| Cn1ncc(-c2nc(C(F)(F)F)cs2)c1C(=O)NC1CCn2cc(-c3cccc(F)c3)nc2C1 (centres unmarked) [Example 2.8, N-(2-(3-fluorophenyl)-5,6,7,8-tetrahydroimidazo[1,2-a]pyridin-7-yl)-1-methyl-4-(4-(trifluoromethyl)thiazol-2-yl)-1H-pyrazole-5-carboxamide] | < 5 |
| Cn1ncc(-c2nc(C(F)F)cs2)c1C(=O)Nc1cc2nc(-c3ccccc3)nn2cc1F [Example 3.12, 4-(4-(difluoromethyl)thiazol-2-yl)-N-(6-fluoro-2-phenyl-[1,2,4]triazolo[1,5-a]pyridin-7-yl)-1-methyl-1H-pyrazole-5-carboxamide] | < 5 |
| Cn1ncc(-c2nc(C(F)(F)F)cs2)c1C(=O)Nc1cc2nc(-c3ccccc3)nn2cc1F [Example 3.6, N-(6-fluoro-2-phenyl-[1,2,4]triazolo[1,5-a]pyridin-7-yl)-1-methyl-4-(4-(trifluoromethyl)thiazol-2-yl)-1H-pyrazole-5-carboxamide] | < 5 |
| Cc1ncc(F)c(-c2cnn(C)c2C(=O)Nc2cc3nc(-c4ccccc4)nn3cc2F)n1 [Example 3.36, 4-(5-fluoro-2-methylpyrimidin-4-yl)-N-(6-fluoro-2-phenyl-[1,2,4]triazolo[1,5-a]pyridin-7-yl)-1-methyl-1H-pyrazole-5-carboxamide] | < 5 |
| Cc1cccc(-c2cnn(C)c2C(=O)NC2CCn3cc(-c4ccccc4)nc3C2)n1 (centres unmarked) [Example 2.9, 1-methyl-4-(6-methylpyridin-2-yl)-N-(2-phenyl-5,6,7,8-tetrahydroimidazo[1,2-a]pyridin-7-yl)-1H-pyrazole-5-carboxamide] | < 5 |
| Cn1ncc(-c2nc(C(F)F)cs2)c1C(=O)Nc1ccn2cc(-c3ccccc3)nc2c1 [Example 1.3, 4-(4-(difluoromethyl)thiazol-2-yl)-1-methyl-N-(2-phenylimidazo[1,2-a]pyridin-7-yl)-1H-pyrazole-5-carboxamide] | < 5 |
| Cc1cnc(C)c(-c2cnn(C)c2C(=O)Nc2cc3nc(-c4ccccc4)nn3cc2F)n1 [Example 3.14, 4-(3,6-dimethyl-pyrazin-2-yl)-N-(6-fluoro-2-phenyl-[1,2,4]triazolo[1,5-a]pyridin-7-yl)-1-methyl-1H-pyrazole-5-carboxamide] | < 5 |
| Cc1ccc(-c2cnn(C)c2C(=O)Nc2cc3nc(-c4ccccc4)nn3cc2F)nn1 [Example 3.45, N-(6-fluoro-2-phenyl-[1,2,4]triazolo[1,5-a]pyridin-7-yl)-1-methyl-4-(6-methylpyridazin-3-yl)-1H-pyrazole-5-carboxamide] | < 5 |

Now from value to molecule:

| IC50 [nM] | Molecule |
| --- | --- |
| < 5 | Cc1nc(-c2cnn(C)c2C(=O)NC2CCn3nc(-c4ccccc4)nc3C2)sc1Br (centres unmarked) [Example 5.7, 4-(5-bromo-4-methylthiazol-2-yl)-1-methyl-N-(2-phenyl-5,6,7,8-tetrahydro-[1,2,4]triazolo[1,5-a]pyridin-7-yl)-1H-pyrazole-5-carboxamide] |
| < 5 | (R)-N-(6-fluoro-2-(2trifluoromethyl)pyrrolidin-1-yl)-[1,2,4]triazolo[1,5-a]pyridin-7-yl)-1-methyl-4-(6-methylpyridin-2-yl)-1H-pyrazole-5-carboxamide [Example 4.11] |
| < 5 | Cn1ncc(-c2nc(C(F)F)cs2)c1C(=O)Nc1ccn2nc(N3CC[C@@H](F)C3)nc2c1 [Example 4.12, (R)-4-(4-(difluoromethyl)thiazol-2-yl)-N-(2-(3-fluoropyrrolidin-1-yl)-[1,2,4]triazolo[1,5-a]pyridin-7-yl)-1-methyl-1H-pyrazole-5-carboxamide] |
| < 5 | Cn1ncc(-c2nc(C(F)(F)F)cs2)c1C(=O)Nc1ccn2nc(N3CC[C@H](F)C3)nc2c1 [Example 4.22, (S)-N-(2-(3-fluoropyrrolidin-1-yl)-[1,2,4]triazolo[1,5-a]pyridin-7-yl)-1-methyl-4-(4-(trifluoromethyl)thiazol-2-yl)-1H-pyrazole-5-carboxamide] |
| < 5 | COc1ccccc1-c1nc2n(n1)CCC(NC(=O)c1c(-c3nc(C(F)F)cs3)cnn1C)C2 (centres unmarked) [Example 5.34, 4-(4-(difluoromethyl)thiazol-2-yl)-N-(2-(2-methoxyphenyl)-5,6,7,8-tetrahydro-[1,2,4]triazolo[1,5-a]pyridin-7-yl)-1-methyl-1H-pyrazole-5-carboxamide] |
| < 5 | Cn1ncc(-c2cccc(C(F)(F)F)n2)c1C(=O)Nc1ccn2nc(N3CCCC3)nc2c1 [Example 4.27, 1-methyl-N-(2-(pyrrolidin-1-yl)-[1,2,4]triazolo[1,5-a]pyridin-7-yl)-4-(6-(trifluoromethyl)pyridin-2-yl)-1H-pyrazole-5-carboxamide] |
| < 5 | Cn1ncc(-c2nc(C(F)F)c(Cl)s2)c1C(=O)Nc1ccn2nc(N3CCCC3)nc2c1 [Example 4.26, 4-(5-chloro-4-(difluoromethyl)thiazol-2-yl)-1-methyl-N-(2-(pyrrolidin-1-yl)-[1,2,4]triazolo[1,5-a]pyridin-7-yl)-1H-pyrazole-5-carboxamide] |
| < 5 | Cc1sc(-c2cnn(C)c2C(=O)Nc2ccn3nc(N4CCCC4)nc3c2)nc1C(F)F [Example 4.33, 4-(4-(difluoromethyl)-5-methylthiazol-2-yl)-1-methyl-N-(2-(pyrrolidin-1-yl)-[1,2,4]triazolo[1,5-a]pyridin-7-yl)-1H-pyrazole-5-carboxamide] |
| < 5 | Cc1cccc(-c2cnn(C)c2C(=O)Nc2ccn3nc(N4CCCC4)nc3c2)n1 [Example 4.31, 1-methyl-4-(6-methylpyridin-2-yl)-N-(2-(pyrrolidin-1-yl)-[1,2,4]triazolo[1,5-a]pyridin-7-yl)-1H-pyrazole-5-carboxamide] |
| < 5 | Cc1ccnc(-c2cnn(C)c2C(=O)Nc2ccn3nc(N4CCC[C@@H]4C)nc3c2)c1 [Example 4.4, (S)-1-methyl-4-(4-methylpyridin-2-yl)-N-(2-(2-methylpyrrolidin-1-yl)-[1,2,4]triazolo[1,5-a]pyridin-7-yl)-1H-pyrazole-5-carboxamide] |
| < 5 | Cc1cncc(-c2cnn(C)c2C(=O)Nc2ccn3nc(N4CCC[C@@H]4C)nc3c2)n1 [Example 4.6, (S)-1-methyl-4-(6-methylpyrazin-2-yl)-N-(2-(2-methylpyrrolidin-1-yl)-[1,2,4]triazolo[1,5-a]pyridin-7-yl)-1H-pyrazole-5-carboxamide] |
